Data as given in the kinase profiling compilation of Christmann-Franck et al. (2016).

Key:
Test in all cases: KINOMEscan competition binding
Conditions in all cases: compound 10.0 µM
[1] = molecular target: ACVR2A (human) (UniProt P27037)
[2] = molecular target: AKT1 (human) (UniProt P31749)
[3] = molecular target: AURKB (human) (UniProt Q96GD4)
[4] = molecular target: CDK15 (human) (UniProt Q96Q40)
[5] = molecular target: CDK19 (human) (UniProt Q9BWU1)
[6] = molecular target: CLK1 (human) (UniProt P49759)
[7] = molecular target: CLK4 (human) (UniProt Q9HAZ1)
[8] = molecular target: CSNK1G1 (human) (UniProt Q9HCP0)
[9] = molecular target: CSNK2A2 (human) (UniProt P19784)
[10] = molecular target: EGFR (human) (UniProt P00533)
[11] = system: EGFR (human), P00533 [752-759 del]
[12] = molecular target: EIF2AK2 (human) (UniProt P19525)
[13] = molecular target: EPHA1 (human) (UniProt P21709)
[14] = molecular target: FGFR1 (human) (UniProt P11362)
[15] = molecular target: HCK (human) (UniProt P08631)
[16] = molecular target: HUNK (human) (UniProt P57058)
[17] = molecular target: IGF1R (human) (UniProt P08069)
[18] = molecular target: INSRR (human) (UniProt P14616)
[19] = system: KIT (human), P10721 [D816H]
[20] = system: KIT (human), P10721 [V559D/T670I]
[21] = molecular target: LATS1 (human) (UniProt O95835)
[22] = molecular target: LATS2 (human) (UniProt Q9NRM7)
[23] = molecular target: MAP2K5 (human) (UniProt Q13163)
[24] = molecular target: MAP3K10 (human) (UniProt Q02779)
[25] = molecular target: MAP3K4 (human) (UniProt Q9Y6R4)
[26] = molecular target: MAPK3 (human) (UniProt P27361)
[27] = molecular target: MAPK9 (human) (UniProt P45984)
[28] = molecular target: MARK4 (human) (UniProt Q96L34)
[29] = molecular target: MYLK4 (human) (UniProt Q86YV6)
[30] = molecular target: NUAK1 (human) (UniProt O60285)
[31] = molecular target: PIM3 (human) (UniProt Q86V86)
[32] = molecular target: PIP4K2B (human) (UniProt P78356)
[33] = molecular target: PLK1 (human) (UniProt P53350)
[34] = system: RET (human), P07949 [M918T]
[35] = molecular target: RIOK1 (human) (UniProt Q9BRS2)
[36] = molecular target: RPS6KA1 KD2 (human) (UniProt Q15418)
[37] = molecular target: SIK2 (human) (UniProt Q9H0K1)
[38] = molecular target: STK32A (human) (UniProt Q8WU08)
[39] = molecular target: TLK2 (human) (UniProt Q86UE8)
[40] = molecular target: TTK (human) (UniProt P33981)
[41] = molecular target: VRK2 (human) (UniProt Q86Y07)
[42] = molecular target: YSK4 (human) (UniProt Q56UN5)

Sequence of FGFR1 (human) (P11362 whole entry, looked up): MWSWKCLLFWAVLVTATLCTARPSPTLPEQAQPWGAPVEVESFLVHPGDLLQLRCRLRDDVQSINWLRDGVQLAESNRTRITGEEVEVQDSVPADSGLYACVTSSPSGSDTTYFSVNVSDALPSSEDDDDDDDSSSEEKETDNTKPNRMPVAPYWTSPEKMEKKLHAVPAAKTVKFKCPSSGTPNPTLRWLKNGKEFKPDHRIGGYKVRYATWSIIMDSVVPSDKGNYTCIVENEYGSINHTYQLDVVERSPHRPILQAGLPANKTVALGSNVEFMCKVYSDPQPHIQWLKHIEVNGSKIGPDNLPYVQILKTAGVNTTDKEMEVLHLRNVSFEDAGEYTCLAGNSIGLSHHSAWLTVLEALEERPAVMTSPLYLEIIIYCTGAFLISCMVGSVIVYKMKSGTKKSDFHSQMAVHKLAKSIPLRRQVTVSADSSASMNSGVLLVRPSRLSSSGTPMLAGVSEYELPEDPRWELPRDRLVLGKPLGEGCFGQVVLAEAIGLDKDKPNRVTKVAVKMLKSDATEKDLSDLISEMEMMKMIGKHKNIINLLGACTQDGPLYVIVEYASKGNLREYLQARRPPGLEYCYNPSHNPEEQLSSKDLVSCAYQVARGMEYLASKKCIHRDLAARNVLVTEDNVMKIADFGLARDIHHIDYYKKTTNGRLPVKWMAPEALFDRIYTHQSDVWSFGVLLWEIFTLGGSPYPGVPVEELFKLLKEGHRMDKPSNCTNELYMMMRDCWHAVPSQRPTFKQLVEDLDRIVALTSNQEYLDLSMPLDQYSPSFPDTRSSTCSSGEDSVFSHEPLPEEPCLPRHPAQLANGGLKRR
Sequence of MYLK4 (human) (Q86YV6 whole entry, looked up): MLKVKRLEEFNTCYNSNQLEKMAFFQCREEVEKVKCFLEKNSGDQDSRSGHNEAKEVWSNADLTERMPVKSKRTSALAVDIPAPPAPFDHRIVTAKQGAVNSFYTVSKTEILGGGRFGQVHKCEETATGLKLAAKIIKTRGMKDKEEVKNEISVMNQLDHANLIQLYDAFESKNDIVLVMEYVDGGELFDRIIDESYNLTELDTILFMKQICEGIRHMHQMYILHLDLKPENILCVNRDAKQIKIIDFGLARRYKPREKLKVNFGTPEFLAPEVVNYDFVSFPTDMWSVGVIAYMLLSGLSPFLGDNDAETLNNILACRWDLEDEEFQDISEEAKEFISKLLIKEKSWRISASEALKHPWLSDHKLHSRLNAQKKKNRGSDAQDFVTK
Sequence of RIOK1 (human) (Q9BRS2 whole entry, looked up): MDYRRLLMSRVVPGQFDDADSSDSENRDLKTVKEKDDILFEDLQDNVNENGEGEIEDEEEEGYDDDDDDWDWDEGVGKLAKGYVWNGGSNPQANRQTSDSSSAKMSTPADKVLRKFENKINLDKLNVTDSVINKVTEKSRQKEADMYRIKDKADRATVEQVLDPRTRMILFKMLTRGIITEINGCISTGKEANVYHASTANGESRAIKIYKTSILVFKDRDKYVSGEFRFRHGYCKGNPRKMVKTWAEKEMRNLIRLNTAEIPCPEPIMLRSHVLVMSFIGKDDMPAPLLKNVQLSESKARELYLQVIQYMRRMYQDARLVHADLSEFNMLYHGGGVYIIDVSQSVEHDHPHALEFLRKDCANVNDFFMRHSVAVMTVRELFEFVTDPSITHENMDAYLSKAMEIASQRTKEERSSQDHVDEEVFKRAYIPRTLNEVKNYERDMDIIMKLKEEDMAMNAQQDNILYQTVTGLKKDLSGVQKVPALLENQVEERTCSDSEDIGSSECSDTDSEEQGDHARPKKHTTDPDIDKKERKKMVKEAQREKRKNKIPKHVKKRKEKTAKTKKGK
Sequence of KIT (human), P10721 [V559D/T670I] (P10721 whole entry V559D/T670I, looked up): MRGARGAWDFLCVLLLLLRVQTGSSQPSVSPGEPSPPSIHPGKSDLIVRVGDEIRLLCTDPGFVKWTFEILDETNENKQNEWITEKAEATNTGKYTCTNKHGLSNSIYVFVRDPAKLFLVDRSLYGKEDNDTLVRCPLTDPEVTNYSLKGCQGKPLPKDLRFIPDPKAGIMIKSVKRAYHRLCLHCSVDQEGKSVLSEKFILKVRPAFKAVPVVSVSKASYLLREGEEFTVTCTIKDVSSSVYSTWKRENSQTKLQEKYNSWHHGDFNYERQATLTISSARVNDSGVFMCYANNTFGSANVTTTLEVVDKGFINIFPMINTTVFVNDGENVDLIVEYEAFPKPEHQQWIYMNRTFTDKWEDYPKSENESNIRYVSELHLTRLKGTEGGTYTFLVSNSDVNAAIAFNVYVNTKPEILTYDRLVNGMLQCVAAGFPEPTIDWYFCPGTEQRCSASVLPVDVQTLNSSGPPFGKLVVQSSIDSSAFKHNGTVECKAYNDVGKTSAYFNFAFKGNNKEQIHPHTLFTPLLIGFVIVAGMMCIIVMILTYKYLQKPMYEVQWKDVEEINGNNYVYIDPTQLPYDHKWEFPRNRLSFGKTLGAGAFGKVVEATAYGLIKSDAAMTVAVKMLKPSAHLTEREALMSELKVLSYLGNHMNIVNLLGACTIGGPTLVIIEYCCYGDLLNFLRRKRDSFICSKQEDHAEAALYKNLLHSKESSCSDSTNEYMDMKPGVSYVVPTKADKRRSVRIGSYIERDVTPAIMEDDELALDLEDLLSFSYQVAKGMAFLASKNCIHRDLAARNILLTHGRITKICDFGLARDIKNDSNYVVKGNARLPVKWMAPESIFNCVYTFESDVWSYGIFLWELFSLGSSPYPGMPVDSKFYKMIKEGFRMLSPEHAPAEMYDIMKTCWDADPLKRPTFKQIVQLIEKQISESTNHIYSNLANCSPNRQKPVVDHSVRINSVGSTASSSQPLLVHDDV
Sequence of RET (human), P07949 [M918T] (P07949 whole entry M918T, looked up): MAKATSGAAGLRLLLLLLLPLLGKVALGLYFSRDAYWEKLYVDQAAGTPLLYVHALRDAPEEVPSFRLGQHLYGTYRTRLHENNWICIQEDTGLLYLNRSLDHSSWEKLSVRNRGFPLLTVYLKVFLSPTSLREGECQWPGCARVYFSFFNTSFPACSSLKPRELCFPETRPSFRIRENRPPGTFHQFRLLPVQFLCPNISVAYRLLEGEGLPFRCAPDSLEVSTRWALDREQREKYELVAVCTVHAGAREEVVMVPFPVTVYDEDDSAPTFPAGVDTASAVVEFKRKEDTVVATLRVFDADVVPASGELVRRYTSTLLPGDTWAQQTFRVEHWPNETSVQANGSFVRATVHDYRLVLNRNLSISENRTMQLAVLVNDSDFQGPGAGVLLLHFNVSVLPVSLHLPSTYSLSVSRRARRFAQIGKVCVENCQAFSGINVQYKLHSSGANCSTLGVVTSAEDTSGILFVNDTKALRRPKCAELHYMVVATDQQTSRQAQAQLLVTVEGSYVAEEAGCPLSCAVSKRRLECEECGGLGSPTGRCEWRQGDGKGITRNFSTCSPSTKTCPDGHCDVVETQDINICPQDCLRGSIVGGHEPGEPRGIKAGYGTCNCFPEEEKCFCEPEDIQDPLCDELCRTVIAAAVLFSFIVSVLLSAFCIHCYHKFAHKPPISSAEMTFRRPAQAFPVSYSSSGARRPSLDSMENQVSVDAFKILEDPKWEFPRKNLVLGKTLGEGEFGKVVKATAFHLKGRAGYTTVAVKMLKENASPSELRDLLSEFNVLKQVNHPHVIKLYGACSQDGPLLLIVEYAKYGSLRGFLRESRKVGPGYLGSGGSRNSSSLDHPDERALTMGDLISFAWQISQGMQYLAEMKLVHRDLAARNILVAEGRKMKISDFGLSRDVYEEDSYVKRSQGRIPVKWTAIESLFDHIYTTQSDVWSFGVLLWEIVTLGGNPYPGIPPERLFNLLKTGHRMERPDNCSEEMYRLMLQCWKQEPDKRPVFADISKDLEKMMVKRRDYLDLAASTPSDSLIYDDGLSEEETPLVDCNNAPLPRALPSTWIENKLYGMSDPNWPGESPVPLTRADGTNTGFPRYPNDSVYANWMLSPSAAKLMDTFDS
Sequence of LATS2 (human) (Q9NRM7 whole entry, looked up): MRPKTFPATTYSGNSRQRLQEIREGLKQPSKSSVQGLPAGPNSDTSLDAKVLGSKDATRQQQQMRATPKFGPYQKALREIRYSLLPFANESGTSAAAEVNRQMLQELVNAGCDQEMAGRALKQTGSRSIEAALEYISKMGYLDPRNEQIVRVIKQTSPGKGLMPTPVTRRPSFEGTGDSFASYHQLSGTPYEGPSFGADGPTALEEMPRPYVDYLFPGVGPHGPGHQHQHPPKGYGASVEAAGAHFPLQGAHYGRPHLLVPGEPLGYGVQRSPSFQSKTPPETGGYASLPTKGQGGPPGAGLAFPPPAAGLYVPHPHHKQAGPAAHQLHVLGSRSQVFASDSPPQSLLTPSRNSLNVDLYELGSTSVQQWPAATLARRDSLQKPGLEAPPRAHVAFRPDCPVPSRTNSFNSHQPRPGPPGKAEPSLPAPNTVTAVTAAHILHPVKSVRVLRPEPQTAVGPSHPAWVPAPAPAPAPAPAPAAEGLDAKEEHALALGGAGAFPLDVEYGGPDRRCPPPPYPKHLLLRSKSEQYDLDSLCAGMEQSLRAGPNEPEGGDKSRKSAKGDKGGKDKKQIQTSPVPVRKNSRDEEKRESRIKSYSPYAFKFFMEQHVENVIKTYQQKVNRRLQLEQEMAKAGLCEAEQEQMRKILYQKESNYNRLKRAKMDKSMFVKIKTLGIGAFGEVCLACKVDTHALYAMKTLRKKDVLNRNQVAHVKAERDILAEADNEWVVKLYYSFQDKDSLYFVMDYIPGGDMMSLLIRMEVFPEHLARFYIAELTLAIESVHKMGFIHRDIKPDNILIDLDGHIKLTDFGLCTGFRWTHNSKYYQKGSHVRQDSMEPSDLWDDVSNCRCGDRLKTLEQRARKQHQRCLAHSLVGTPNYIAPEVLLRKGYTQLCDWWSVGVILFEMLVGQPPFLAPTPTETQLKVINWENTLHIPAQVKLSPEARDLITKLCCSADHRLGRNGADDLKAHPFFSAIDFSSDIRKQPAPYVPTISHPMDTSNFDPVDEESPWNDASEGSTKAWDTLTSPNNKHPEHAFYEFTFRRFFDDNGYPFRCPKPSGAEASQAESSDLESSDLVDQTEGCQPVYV
Sequence of KIT (human), P10721 [D816H] (P10721 whole entry D816H, looked up): as the sequence (P10721 whole entry V559D/T670I, looked up) above, with D559V, I670T, D816H counted along it

Cc1cc([C@@H](C)Nc2ccccc2C(=O)O)c2nc(N3CCOCC3)cc(=O)n2c1
kinase still bound, per cent of control [1]: 95% | kinase still bound, per cent of control [2]: 100% | kinase still bound, per cent of control [3]: 76% | kinase still bound, per cent of control [4]: 100% | kinase still bound, per cent of control [5]: 100% | kinase still bound, per cent of control [6]: 56% | kinase still bound, per cent of control [7]: 100% | kinase still bound, per cent of control [8]: 77% | kinase still bound, per cent of control [9]: 64% | kinase still bound, per cent of control [10]: 100% | kinase still bound, per cent of control [11]: 100% | kinase still bound, per cent of control [12]: 100% | kinase still bound, per cent of control [13]: 100% | kinase still bound, per cent of control [14]: 97% | kinase still bound, per cent of control [15]: 60% | kinase still bound, per cent of control [16]: 94% | kinase still bound, per cent of control [17]: 100% | kinase still bound, per cent of control [18]: 100% | kinase still bound, per cent of control [19]: 93% | kinase still bound, per cent of control [20]: 64% | kinase still bound, per cent of control [21]: 60% | kinase still bound, per cent of control [22]: 97% | kinase still bound, per cent of control [23]: 100% | kinase still bound, per cent of control [24]: 96% | kinase still bound, per cent of control [25]: 100% | kinase still bound, per cent of control [26]: 94% | kinase still bound, per cent of control [27]: 69% | kinase still bound, per cent of control [28]: 100% | kinase still bound, per cent of control [29]: 75% | kinase still bound, per cent of control [30]: 100% | kinase still bound, per cent of control [31]: 100% | kinase still bound, per cent of control [32]: 84% | kinase still bound, per cent of control [33]: 55% | kinase still bound, per cent of control [34]: 100% | kinase still bound, per cent of control [35]: 75% | kinase still bound, per cent of control [36]: 76% | kinase still bound, per cent of control [37]: 90% | kinase still bound, per cent of control [38]: 100% | kinase still bound, per cent of control [39]: 100% | kinase still bound, per cent of control [40]: 88% | kinase still bound, per cent of control [41]: 83% | kinase still bound, per cent of control [42]: 100%
